Results taken from patent US20230295201A1 (Gilead Sciences, Inc., priority 2020, published 2023).
Read-outs that look alike come from different tables or passages of the source.

What was measured:
Type in all cases: cell-based
RSV A2 = assay: RSV NHBE EC50 (RSV A2 antiviral assay in normal human bronchial epithelial cells); settings: NHBE cells, RSV A2, 4 days, read-out: RSV NHBE EC50
RSV strain A2 = assay: RSV HEp-2 EC50 (infectious cytopathic cell protection assay); settings: HEp-2 cells, RSV A2, 4 days, read-out: RSV HEp-2 EC50
Outline: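 Percent inhibition of RSV-induced cytopathic effect came from remaining cell viability (CellTiter-Glo luminescence) after 4 days at 37° C. Compounds in 3-fold serial dilutions were exposed to an infectious mix of titered A2 virus and HEp-2 cells at 50,000/ml, with 0% and 100% inhibition control standards.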

DENV2 replicon = assay: DENV-2 Huh-7 Rep EC50 (replicon luminescence); settings: read-out: DENV-2 Huh-7 Rep EC50
Outline: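 EC50 derived from luminescence dose-response, normalised to DMSO-only 0% inhibition wells, after 1.5 h with EnduRen substrate. Compounds were first exposed for 48 h at 37° C to DENV2 replicon Huh-7 cells (5,000/well).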

HRV16 = HRV16 HELA EC50 (cytopathic effect in H1-HeLa cells)
Outline: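 Read-out is luminescent cell viability (CellTiter-Glo) after 96 h of infection at 33 °C, scaled between uninfected and infected-untreated wells. Before infection with titrated virus, compounds went onto H1-HeLa cells as triplicate 3-fold dilution series.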

[1] = human respiratory syncytial virus, NHBE, 96 h
[2] = human respiratory syncytial virus, HEp-2, 96 h
[3] = Dengue virus, DENV2, Huh-7, 48 h, Huh-7 replicon cells, 48 hours
[4] = 96 h, H1-HeLa cells, 33° C., read-out: HRV16 HELA EC50
[5] = human respiratory syncytial virus, 96 h
[6] = Dengue virus, DENV2, Huh-7, 48 h
[7] = H1-HeLa cells, 96 h, 33° C.; read-out: HRV16 HELA EC50

Compound	EC50 (RSV A2; [1])	EC50 (RSV strain A2; [2])	EC50 (DENV2 replicon; [3])	EC50 (HRV16; [4])	EC50 (HRV16; [7])	also measured
CC(C)(CO)C(=O)OCCNP(=O)(OC[C@@]1(C#N)O[C@@H](c2ccc3c(N)ncnn23)[C@H](O)[C@@H]1O)Oc1ccccc1 (stereo partly drawn) [Example 126, 2-(((((2R,3S,4R,5S)-5-(4-aminopyrrolo[2,1-f][1,2,4]triazin-7-yl)-2-cyano-3,4-dihydroxytetrahydrofuran-2-yl)methoxy)(phenoxy)phosphoryl)amino)ethyl 3-hydroxy-2,2-dimethylpropanoate]	1.79 µM	6.56 µM	> 50 µM	27.9 µM	–	–
CC(C)[C@H](N)C(=O)OCCNP(=O)(OC[C@@]1(C#N)O[C@@H](c2ccc3c(N)ncnn23)[C@H](O)[C@@H]1O)Oc1ccccc1 (stereo partly drawn) [Example 131, (2S)-2-(((((2R,3S,4R,5S)-5-(4-aminopyrrolo[2,1-f][1,2,4]triazin-7-yl)-2-cyano-3,4-dihydroxytetrahydrofuran-2-yl)methoxy)(phenoxy)phosphoryl)amino)ethyl 2-amino-3-methylbutanoate]	0.636 µM	0.315 µM	> 50 µM	1.81 µM	–	–
CCC(CC)COC(=O)[C@H](CC1CC1)NP(=O)(OC[C@@]1(C#N)O[C@@H](c2ccc3c(N)ncnn23)[C@H](O)[C@@H]1O)Oc1ccccc1 (stereo partly drawn) [Example 132, (2S)-2-ethylbutyl 2-(((((2R,3S,4R,5S)-5-(4-aminopyrrolo[2,1-f][1,2,4]triazin-7-yl)-2-cyano-3,4-dihydroxytetrahydrofuran-2-yl)methoxy)(phenoxy)phosphoryl)amino)-3-cyclopropylpropanoate]	0.523 µM	1.99 µM	44.6 µM	22.4 µM	–	–
C[C@H](N)C(=O)OCCNP(=O)(OC[C@@]1(C#N)O[C@@H](c2ccc3c(N)ncnn23)[C@H](O)[C@@H]1O)Oc1ccccc1 (stereo partly drawn) [Example 133, 2-(((((2R,3S,4R,5S)-5-(4-aminopyrrolo[2,1-f][1,2,4]triazin-7-yl)-2-cyano-3,4-dihydroxytetrahydrofuran-2-yl)methoxy)(phenoxy)phosphoryl)amino)ethyl L-alaninate]	> 5 µM	4.72 µM	> 50 µM	16.5 µM	–	–
C[C@H](NP(=O)(OC[C@@]1(C#N)O[C@@H](c2ccc3c(N)ncnn23)[C@H](O)[C@@H]1O)Oc1ccccc1)C(=O)OC1CCCCCC1 (stereo partly drawn) [Example 134, (2S)-cycloheptyl 2-(((((2R,3S,4R,5S)-5-(4-aminopyrrolo[2,1-f][1,2,4]triazin-7-yl)-2-cyano-3,4-dihydroxytetrahydrofuran-2-yl)methoxy)(phenoxy)phosphoryl)amino)propanoate]	0.052 µM	0.334 µM	24.7 µM	0.247 µM	–	–
CC(C)[C@H](NC(=O)OC(C)(C)C)C(=O)OCCNP(=O)(OC[C@@]1(C#N)O[C@@H](c2ccc3c(N)ncnn23)[C@H](O)[C@@H]1O)Oc1ccccc1 (stereo partly drawn) [Example 139, (2S)-2-(((((2R,3S,4R,5S)-5-(4-aminopyrrolo[2,1-f][1,2,4]triazin-7-yl)-2-cyano-3,4-dihydroxytetrahydrofuran-2-yl)methoxy)(phenoxy)phosphoryl)amino)ethyl 2-((tert-butoxycarbonyl)amino)-3-methylbutanoate]	0.103 µM	6.43 µM	> 50 µM	28.3 µM	–	–
C[C@@H](NP(=O)(OC[C@@]1(C#N)O[C@@H](c2ccc3c(N)ncnn23)[C@H](O)[C@@H]1O)Oc1ccccc1)C(=O)O[C@@H]1CCN(C(=O)OC(C)(C)C)C1 (stereo partly drawn) [Example 140, (3R)-tert-butyl 3-(((2R)-2-(((((2R,3S,4R,5S)-5-(4-aminopyrrolo[2,1-f][1,2,4]triazin-7-yl)-2-cyano-3,4-dihydroxytetrahydrofuran-2-yl)methoxy)(phenoxy)phosphoryl)amino)propanoyl)oxy)pyrrolidine-1-carboxylate]	> 5 µM	8.89 µM	> 50 µM	23.3 µM	–	–
CC1(C(=O)OCCNP(=O)(OC[C@@]2(C#N)O[C@@H](c3ccc4c(N)ncnn34)[C@H](O)[C@@H]2O)Oc2ccccc2)CC1 (stereo partly drawn) [Example 141, 2-(((((2R,3S,4R,5S)-5-(4-aminopyrrolo[2,1-f][1,2,4]triazin-7-yl)-2-cyano-3,4-dihydroxytetrahydrofuran-2-yl)methoxy)(phenoxy)phosphoryl)amino)ethyl 1-methylcyclopropane-1-carboxylate]	0.067 µM	2.01 µM	> 50 µM	14.9 µM	–	–
CC(=O)N1CC[C@@H](OC(=O)[C@H](C)NP(=O)(OC[C@@]2(C#N)O[C@@H](c3ccc4c(N)ncnn34)[C@H](O)[C@@H]2O)Oc2ccccc2)C1 (stereo partly drawn) [Example 146, (2S)—(R)-1-acetylpyrrolidin-3-yl 2-(((((2R,3S,4R,5S)-5-(4-aminopyrrolo[2,1-f][1,2,4]triazin-7-yl)-2-cyano-3,4-dihydroxytetrahydrofuran-2-yl)methoxy)(phenoxy)phosphoryl)amino)propanoate]	> 5 µM	9.72 µM	> 50 µM	> 50 µM	–	–
CCCCCCCCCCCCCCCCCCOCCOP(=O)(O)OC[C@@]1(C#N)O[C@@H](c2ccc3c(N)ncnn23)[C@H](O)[C@@H]1O [Example 148, ((2R,3S,4R,5S)-5-(4-aminopyrrolo[2,1-f][1,2,4]triazin-7-yl)-2-cyano-3,4-dihydroxytetrahydrofuran-2-yl)methyl (2-(octadecyloxy)ethyl) hydrogen phosphate]	–	–	–	–	36.9 µM	EC50 (RSV A2; [5]): 0.32 µM; EC50 (RSV strain A2; [5]): 2.67 µM; EC50 (DENV2 replicon; [6]): > 50 µM
C[C@H](NP(=O)(OC[C@@]1(C#N)O[C@@H](c2ccc3c(N)ncnn23)[C@H](O)[C@@H]1O)Oc1ccccc1)C(=O)OC1CCN(C)CC1 (stereo partly drawn) [Example 150]	–	4.16 µM	> 100 µM	49.9 µM	–	EC50 (RSV A2; human respiratory syncytial virus, NHBE, in Homo sapiens, 96 h): > 5 µM
C[C@H](NP(=O)(OC[C@@]1(C#N)O[C@@H](c2ccc3c(N)ncnn23)[C@H](O)[C@@H]1O)Oc1ccccc1)C(=O)OC1CCOC(C)(C)C1 (stereo partly drawn) [Example 156, 2,2-dimethyltetrahydro-2H-pyran-4-yl ((((2R,3S,4R,5S)-5-(4-aminopyrrolo[2,1-f][1,2,4]triazin-7-yl)-2-cyano-3,4-dihydroxytetrahydrofuran-2-yl)methoxy)(phenoxy)phosphoryl)alaninate]	1.37 µM	8.94 µM	> 100 µM	25.9 µM	–	–
CC[C@H](N[P@@](=O)(OC[C@@]1(C#N)O[C@@H](c2ccc3c(N)ncnn23)[C@H](O)[C@@H]1O)Oc1ccccc1)C(=O)OCC(C)(C)C [Example 158]	–	–	–	–	13 µM	EC50 (RSV A2): 1.27 µM; EC50 (RSV strain A2): 0.969 µM; EC50 (DENV2 replicon; Huh-7 replicon cells, 48 hours): > 50 µM
CC[C@H](N[P@](=O)(OC[C@@]1(C#N)O[C@@H](c2ccc3c(N)ncnn23)[C@H](O)[C@@H]1O)Oc1ccccc1)C(=O)OCC(C)(C)C [Example 159]	–	–	–	–	1.28 µM	EC50 (RSV A2): 0.489 µM; EC50 (RSV strain A2): 0.22 µM; EC50 (DENV2 replicon; Huh-7 replicon cells, 48 hours): > 50 µM
C[C@H](NP(=O)(OC[C@@]1(C#N)O[C@@H](c2ccc3c(N)ncnn23)[C@H](O)[C@@H]1O)Oc1ccccc1)C(=O)O[C@@H](C)C(N)=O (stereo partly drawn) [Example 160]	–	–	–	–	29.1 µM	EC50 (RSV A2): > 5 µM; EC50 (RSV strain A2): 7.3 µM; EC50 (DENV2 replicon; Huh-7 replicon cells, 48 hours): > 50 µM
N#C[C@@]12COP(=O)(OC3CCCC3)O[C@H]1[C@@H](O)[C@H](c1ccc3c(N)ncnn13)O2 (stereo partly drawn) [Example 161, (4aR,6S,7S,7aS)-6-(4-aminopyrrolo[2,1-f][1,2,4]triazin-7-yl)-2-(cyclopentyloxy)-7-hydroxydihydro-4H-furo[3,2-d][1,3,2]dioxaphosphinine-4a(6H)-carbonitrile 2-oxide]	–	–	–	–	13.8 µM	EC50 (RSV A2; [5]): 1.49 µM; EC50 (RSV strain A2; [5]): 6.48 µM; EC50 (DENV2 replicon; [6]): > 50 µM
C[C@H](NP(=O)(OC[C@@]1(C#N)O[C@@H](c2ccc3c(N)ncnn23)[C@H](O)[C@@H]1O)Oc1ccccc1)C(=O)OCCN(C)C (stereo partly drawn) [Example 162, 2-(dimethylamino)ethyl ((((2R,3S,4R,5S)-5-(4-aminopyrrolo[2,1-f][1,2,4]triazin-7-yl)-2-cyano-3,4-dihydroxytetrahydrofuran-2-yl)methoxy)(phenoxy)phosphoryl)-L-alaninate]	> 5 µM	6.05 µM	13.8 µM	12.8 µM	–	–
CC(C)OP1(=O)OC[C@@]2(C#N)O[C@@H](c3ccc4c(N)ncnn34)[C@H](O)[C@@H]2O1 (stereo partly drawn) [Example 163, (4aR,6S,7S,7aS)-6-(4-aminopyrrolo[2,1-f][1,2,4]triazin-7-yl)-7-hydroxy-2-isopropoxydihydro-4H-furo[3,2-d][1,3,2]dioxaphosphinine-4a(6H)-carbonitrile 2-oxide]	–	–	–	–	> 50 µM	EC50 (RSV A2; [5]): 9.21 µM; EC50 (RSV strain A2; [5]): 13.3 µM; EC50 (DENV2 replicon; [6]): > 50 µM
